“Also recorded” adds a separate entry of the source. Like-named read-outs stand apart in the source and are kept apart here.
Assays:
[1] = molecular target: T1, PDE4D2 (Homo sapiens, UniProt Q08499); assay: PDE isoform selectivity panel: PDE4D2; assay type: biochemical
T1 construct: purchased BPS Bioscience Inc

[2] = molecular target: PDE7B (Homo sapiens, UniProt Q9NP56); assay: PDE isoform selectivity panel: PDE7B; assay type: biochemical; conditions: PDE7B; 10 μM compound
Description: (§1) The potency of these compounds was assessed versus 20 different phosphodiesters (PDEs) using methods described in the foregoing Examples.

[3] = molecular target: PDE1C (Homo sapiens, UniProt Q14123); assay: PDE isoform selectivity panel: PDE1C; assay type: biochemical; conditions: PDE1C; 10 μM compound
[4] = molecular target: T2, PDE3B (Homo sapiens, UniProt Q13370); assay: PDE isoform selectivity panel: PDE3B; assay type: biochemical
T2 construct: purchased BPS Bioscience Inc
T2 sequence (Q13370 whole entry, canonical isoform): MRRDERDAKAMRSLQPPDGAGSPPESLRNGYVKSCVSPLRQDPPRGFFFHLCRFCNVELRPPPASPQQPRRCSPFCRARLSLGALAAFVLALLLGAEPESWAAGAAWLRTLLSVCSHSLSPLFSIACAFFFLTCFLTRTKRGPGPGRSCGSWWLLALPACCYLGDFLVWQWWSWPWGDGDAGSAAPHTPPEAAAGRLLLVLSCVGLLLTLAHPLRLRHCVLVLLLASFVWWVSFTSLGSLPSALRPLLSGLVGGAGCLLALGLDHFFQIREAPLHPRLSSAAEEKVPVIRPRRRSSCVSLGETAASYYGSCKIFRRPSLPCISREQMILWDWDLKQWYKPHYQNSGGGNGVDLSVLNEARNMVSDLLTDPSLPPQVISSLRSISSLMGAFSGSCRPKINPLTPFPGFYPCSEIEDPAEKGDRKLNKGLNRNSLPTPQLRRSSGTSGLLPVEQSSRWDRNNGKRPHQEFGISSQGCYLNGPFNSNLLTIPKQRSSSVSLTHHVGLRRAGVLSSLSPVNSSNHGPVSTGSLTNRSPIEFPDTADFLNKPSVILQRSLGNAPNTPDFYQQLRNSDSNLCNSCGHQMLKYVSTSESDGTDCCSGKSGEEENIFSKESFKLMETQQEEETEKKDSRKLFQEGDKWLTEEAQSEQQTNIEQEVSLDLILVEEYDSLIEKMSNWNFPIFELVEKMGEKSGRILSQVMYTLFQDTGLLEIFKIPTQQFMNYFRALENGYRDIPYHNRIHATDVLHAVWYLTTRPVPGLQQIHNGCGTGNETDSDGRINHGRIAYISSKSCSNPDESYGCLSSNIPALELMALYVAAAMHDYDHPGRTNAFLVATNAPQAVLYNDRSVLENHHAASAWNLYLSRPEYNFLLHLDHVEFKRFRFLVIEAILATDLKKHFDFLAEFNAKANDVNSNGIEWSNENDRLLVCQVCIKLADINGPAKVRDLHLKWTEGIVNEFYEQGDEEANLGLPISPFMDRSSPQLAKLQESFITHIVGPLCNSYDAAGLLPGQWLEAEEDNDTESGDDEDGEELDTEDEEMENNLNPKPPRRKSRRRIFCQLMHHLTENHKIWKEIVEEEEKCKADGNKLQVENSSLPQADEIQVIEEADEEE
Description: as §1

[5] = molecular target: T3, PDE4A1A (Homo sapiens, UniProt P27815); assay: IMAP fluorescence polarization assay with purified PDE4A1A; assay type: biochemical; parameters: purchased BPS Bioscience; conditions: Table 3; three separate experiments (SD provided); read-out: PDE4A IC50
T3 sequence (P27815 1-647 isoform P27815-4): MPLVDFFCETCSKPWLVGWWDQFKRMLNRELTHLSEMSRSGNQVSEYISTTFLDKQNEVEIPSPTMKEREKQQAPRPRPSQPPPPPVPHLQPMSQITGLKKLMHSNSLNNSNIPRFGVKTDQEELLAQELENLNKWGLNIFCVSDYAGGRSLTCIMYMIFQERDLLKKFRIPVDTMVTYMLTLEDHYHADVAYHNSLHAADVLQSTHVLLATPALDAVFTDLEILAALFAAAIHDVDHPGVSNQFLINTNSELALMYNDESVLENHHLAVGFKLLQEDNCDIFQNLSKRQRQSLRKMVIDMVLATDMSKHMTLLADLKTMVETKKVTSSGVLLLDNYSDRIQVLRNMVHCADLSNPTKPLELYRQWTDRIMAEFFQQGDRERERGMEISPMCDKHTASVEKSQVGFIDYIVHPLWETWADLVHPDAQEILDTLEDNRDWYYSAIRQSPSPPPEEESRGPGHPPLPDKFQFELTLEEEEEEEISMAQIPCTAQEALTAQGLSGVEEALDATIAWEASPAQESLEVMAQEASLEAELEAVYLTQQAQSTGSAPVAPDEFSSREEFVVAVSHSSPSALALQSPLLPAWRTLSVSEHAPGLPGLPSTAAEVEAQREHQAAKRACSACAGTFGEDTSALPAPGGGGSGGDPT
Description: Briefly, two microliters of PDE4A1A (0.05 ng/μl PDE4A1A, 10 mM Tris pH 7.2, 0.1% BSA, 10 mM MgCl2, 1 mM DTT, and 0.05% NaN3, final concentration) was dispensed into wells of 1536-well black/solid bottom assay plates (Greiner Bio-One North. America, NC) using a Flying Reagent Dispenser (Aurora Discovery, CA). The plates were centrifuged at 1000 rpm for 30 seconds and then 23 nanoliters of test compound was transferred to the assay plate using a Kalypsys pin tool. After incubation at room temperature for 5 min, 2 μL/well of cAMP (100 nM, final concentration) was dispensed for a final assay volume of 4 μL/well. The plates were centrifuged at 1000 rpm for 30 seconds, incubated for 40 minutes at room temperature, and then 4 microliters of IMAP binding reagent were added to the wells.

[6] = molecular target: T4, PDE9A2 (Homo sapiens, UniProt O76083); assay: PDE isoform selectivity panel: PDE9A2; assay type: biochemical; conditions: 10 μM compound
T4 construct: purchased BPS Bioscience Inc
T4 sequence (O76083 1-533 isoform O76083-2): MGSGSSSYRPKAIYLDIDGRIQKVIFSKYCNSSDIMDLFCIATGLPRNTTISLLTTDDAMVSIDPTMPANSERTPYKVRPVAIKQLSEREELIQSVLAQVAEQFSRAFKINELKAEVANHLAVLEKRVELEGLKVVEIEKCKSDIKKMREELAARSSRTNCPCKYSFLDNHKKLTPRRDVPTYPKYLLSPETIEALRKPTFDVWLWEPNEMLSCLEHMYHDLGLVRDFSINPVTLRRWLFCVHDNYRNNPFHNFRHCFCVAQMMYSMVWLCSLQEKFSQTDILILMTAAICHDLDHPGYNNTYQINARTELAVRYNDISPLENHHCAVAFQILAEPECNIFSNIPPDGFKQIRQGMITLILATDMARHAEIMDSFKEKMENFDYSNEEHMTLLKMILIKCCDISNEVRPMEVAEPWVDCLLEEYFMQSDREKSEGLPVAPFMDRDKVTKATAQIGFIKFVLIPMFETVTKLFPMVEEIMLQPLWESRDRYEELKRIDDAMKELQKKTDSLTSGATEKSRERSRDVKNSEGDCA

[7] = molecular target: T5, PDE5A1 (Homo sapiens, UniProt O76074); assay: PDE isoform selectivity panel: PDE5A1; assay type: biochemical; conditions: PDE5A1; 10 μM compound
T5 construct: purchased BPS Bioscience Inc

[8] = molecular target: T6, PDE3A (Homo sapiens, UniProt Q14432); assay: PDE isoform selectivity panel: PDE3A; assay type: biochemical; conditions: 10 μM compound, read-out: % Inhibition of the Enzyme Activity at 10 μM
T6 construct: purchased BPS Bioscience Inc
T6 sequence (Q14432 whole entry, canonical isoform): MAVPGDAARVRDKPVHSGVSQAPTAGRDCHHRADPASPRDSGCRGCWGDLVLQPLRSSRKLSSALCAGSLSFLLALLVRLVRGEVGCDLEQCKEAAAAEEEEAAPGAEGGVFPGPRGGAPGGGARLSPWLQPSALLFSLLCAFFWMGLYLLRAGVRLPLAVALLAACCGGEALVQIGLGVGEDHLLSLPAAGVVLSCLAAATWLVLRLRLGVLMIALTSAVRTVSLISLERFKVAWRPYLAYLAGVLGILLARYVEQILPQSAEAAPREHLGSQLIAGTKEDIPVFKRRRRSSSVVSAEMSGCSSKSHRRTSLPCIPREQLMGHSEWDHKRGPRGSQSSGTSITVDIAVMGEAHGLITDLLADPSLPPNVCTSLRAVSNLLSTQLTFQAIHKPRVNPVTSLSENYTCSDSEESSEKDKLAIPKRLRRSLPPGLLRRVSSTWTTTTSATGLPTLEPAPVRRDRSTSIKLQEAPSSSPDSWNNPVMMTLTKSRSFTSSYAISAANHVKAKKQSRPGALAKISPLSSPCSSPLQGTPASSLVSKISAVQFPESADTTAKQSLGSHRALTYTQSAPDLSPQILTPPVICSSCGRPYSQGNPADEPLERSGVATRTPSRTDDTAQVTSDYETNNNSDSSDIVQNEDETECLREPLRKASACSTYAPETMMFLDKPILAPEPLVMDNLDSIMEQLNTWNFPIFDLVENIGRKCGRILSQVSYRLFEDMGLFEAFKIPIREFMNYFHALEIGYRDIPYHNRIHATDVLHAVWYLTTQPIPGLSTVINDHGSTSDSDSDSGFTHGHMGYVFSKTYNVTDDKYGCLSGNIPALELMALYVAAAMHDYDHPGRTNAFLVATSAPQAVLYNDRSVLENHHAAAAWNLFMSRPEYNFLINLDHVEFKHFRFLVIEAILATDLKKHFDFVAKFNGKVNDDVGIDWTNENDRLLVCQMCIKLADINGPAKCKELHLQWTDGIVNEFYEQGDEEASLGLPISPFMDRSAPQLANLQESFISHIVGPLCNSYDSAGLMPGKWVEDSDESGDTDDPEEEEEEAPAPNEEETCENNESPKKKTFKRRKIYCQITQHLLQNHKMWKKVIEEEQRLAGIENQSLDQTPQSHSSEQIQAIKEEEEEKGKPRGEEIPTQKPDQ
Description: as §1

[9] = molecular target: PDE2A (Homo sapiens, UniProt O00408); assay: PDE isoform selectivity panel: PDE2A; assay type: biochemical; conditions: PDE2A; 10 μM compound
Description: as §1

[10] = molecular target: PDE11A4 (Homo sapiens, UniProt Q9HCR9); assay: PDE isoform selectivity panel: PDE11A4; assay type: biochemical; conditions: 10 μM compound
PDE11A4, sequence (Q9HCR9 whole entry, canonical isoform): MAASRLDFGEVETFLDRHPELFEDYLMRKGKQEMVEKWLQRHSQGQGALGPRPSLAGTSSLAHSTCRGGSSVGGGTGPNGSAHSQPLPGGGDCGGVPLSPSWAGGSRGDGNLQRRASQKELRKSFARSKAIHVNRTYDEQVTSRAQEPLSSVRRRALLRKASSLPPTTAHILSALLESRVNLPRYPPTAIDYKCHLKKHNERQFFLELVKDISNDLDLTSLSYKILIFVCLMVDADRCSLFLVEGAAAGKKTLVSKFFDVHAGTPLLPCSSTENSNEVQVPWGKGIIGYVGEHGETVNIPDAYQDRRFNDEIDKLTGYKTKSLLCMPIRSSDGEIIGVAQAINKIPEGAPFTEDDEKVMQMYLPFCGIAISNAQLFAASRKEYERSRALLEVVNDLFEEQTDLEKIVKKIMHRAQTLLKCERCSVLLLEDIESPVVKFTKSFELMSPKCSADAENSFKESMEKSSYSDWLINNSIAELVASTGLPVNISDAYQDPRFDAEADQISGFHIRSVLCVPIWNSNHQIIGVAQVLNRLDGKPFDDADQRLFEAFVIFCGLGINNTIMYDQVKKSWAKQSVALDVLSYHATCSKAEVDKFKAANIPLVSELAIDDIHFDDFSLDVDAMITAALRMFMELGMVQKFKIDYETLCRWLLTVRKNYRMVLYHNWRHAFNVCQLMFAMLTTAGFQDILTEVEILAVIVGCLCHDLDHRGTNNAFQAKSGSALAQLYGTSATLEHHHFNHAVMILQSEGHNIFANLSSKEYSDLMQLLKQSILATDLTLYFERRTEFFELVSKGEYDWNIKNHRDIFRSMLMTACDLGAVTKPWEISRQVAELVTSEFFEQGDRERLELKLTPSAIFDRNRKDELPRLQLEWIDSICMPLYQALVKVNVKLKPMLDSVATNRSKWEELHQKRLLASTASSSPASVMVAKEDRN

[11] = molecular target: PDE1B (Homo sapiens, UniProt Q01064); assay: PDE isoform selectivity panel: PDE1B; assay type: biochemical; conditions: read-out: % Inhibition of the Enzyme Activity at 10 μM
[12] = molecular target: PDE8A1 (Homo sapiens, UniProt O60658); assay: PDE isoform selectivity panel: PDE8A1; assay type: biochemical; conditions: 10 μM compound
Description: as §1

[13] = molecular target: T3, PDE4A1A
Description: as §1

[14] = molecular target: PDE7A (Homo sapiens, UniProt Q13946); assay: PDE isoform selectivity panel: PDE7A; assay type: biochemical; conditions: PDE7A; 10 μM compound
Description: as §1

[15] = molecular target: T7, PDE4C1 (Homo sapiens, UniProt Q08493); assay: PDE isoform selectivity panel: PDE4C1; assay type: biochemical
T7 construct: purchased BPS Bioscience Inc
T7 sequence (Q08493 whole entry, canonical isoform): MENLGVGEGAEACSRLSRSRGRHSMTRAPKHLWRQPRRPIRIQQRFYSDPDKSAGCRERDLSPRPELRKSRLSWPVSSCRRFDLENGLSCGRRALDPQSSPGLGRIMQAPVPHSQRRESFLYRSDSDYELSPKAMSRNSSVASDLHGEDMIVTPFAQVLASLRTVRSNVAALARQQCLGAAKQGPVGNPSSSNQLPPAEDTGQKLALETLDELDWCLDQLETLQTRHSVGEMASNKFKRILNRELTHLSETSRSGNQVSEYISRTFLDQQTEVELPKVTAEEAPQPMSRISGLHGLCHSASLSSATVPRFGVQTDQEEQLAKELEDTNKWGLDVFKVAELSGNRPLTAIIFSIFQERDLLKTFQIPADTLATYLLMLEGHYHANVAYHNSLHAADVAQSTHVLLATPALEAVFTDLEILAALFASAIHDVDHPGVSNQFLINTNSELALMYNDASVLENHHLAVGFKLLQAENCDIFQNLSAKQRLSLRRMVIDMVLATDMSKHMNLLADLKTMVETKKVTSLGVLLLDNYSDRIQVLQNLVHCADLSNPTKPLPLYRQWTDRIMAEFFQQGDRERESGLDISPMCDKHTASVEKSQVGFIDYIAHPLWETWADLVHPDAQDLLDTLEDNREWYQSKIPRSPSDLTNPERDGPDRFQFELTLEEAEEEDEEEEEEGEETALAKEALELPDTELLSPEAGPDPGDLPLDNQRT

[16] = molecular target: T8, PDE1A (Homo sapiens, UniProt P54750); assay: PDE isoform selectivity panel: PDE1A; assay type: biochemical; conditions: 10 μM compound
T8 construct: purchased BPS Bioscience Inc

[17] = molecular target: T9, PDE10A1 (Homo sapiens, UniProt Q9Y233); assay: PDE isoform selectivity panel: PDE10A1; assay type: biochemical
T9 construct: purchased BPS Bioscience Inc

[18] = molecular target: T10, PDE4B2 (Homo sapiens, UniProt Q07343); assay: PDE isoform selectivity panel: PDE4B2; assay type: biochemical
T10 construct: purchased BPS Bioscience Inc

[19] = tested on: PDE4; conditions: read-out: EC50 (concentration at 50% activity); FIG. 3; four separate experiments; normalized to 10 μM 1 response
Description: Cyclic nucleotide-gated cation channel assay. The PDE4 cell line (BD Biosciences, Rockville, Md.) assay was conducted as described in reference 18.
A flying reagent dispensing (FRD) workstation (Aurora Discovery, San Diego) was used to dispense cells and reagents to 1536-well plates. The compounds were serially diluted in DMSO in 384-well plates first and reformatted into 1536-well plates at 7 μL/well using a Cybi-well dispensing station with a 384-well head (Cybio, Inc. Woburn, Mass.). A Pintool station was used to transfer 23 nL of compounds in DMSO solution to the 1536-well assay plates. The final DMSO concentration in the assay plates was under 0.5%. During compound library screening, all plate manipulations were done on an automated robotic system (Kalypsys, San Diego, Calif.). 1 was used as the positive control and data was normalized to 10 μM 1 response (100% activity). All samples were tested in duplicate.
Cyclic-nucleotide gated ion channel cell-based assay. The first cell-based analysis of PDE4 activity involved an assay based on the coupling of a constitutively activated G-protein coupled receptor (GPCR) and cyclic-nucleotide gated (CNG) ion channel that are coexpressed in HEK293 cells. […] The read-out for this assay is based on measurement of membrane electrical potential by a potential-sensitive fluorophore (ACTOne™ dye kit). Inhibitors of PDE4 will interfere with the native enzymatic conversion of cAMP to AMP resulting in increased intracellular levels of the cyclic (cAMP) nucleotide due to constitutive activity of the GPCR. In response to increased amounts of cAMP, the CNG ion channel opens resulting in membrane polarization. The dye reacts to this alteration in membrane polarity with an increase in fluorescence detectable by fluorescence spectroscopy of whole cells read on a fluorescence microtiter plate reader.

[20] = molecular target: T11, PDE4B1 (Homo sapiens, UniProt Q07343); assay: PDE isoform selectivity panel: PDE4B1; assay type: biochemical
T11 construct: purchased BPS Bioscience Inc
Description: as §1

[21] = tested on: PKA reporter Reg-F[1]:Cat-F[2] in β2AR-HEK293 cells; assay: Protein-fragment complementation (Rluc PCA PKA reporter) cell-based assay; conditions: FIG. 4B; 100 μM and 10 μM, 30 min
Description: Cell culture: Stable β2AR-HEK293 cells were plated into 96-well white walled microliter plates (Corning) and grown in DMEM (Invitrogen) supplemented with 10% fetal bovine serum. Transient transfections of plasmids harboring the Rluc PCA PKA reporter were performed with FuGENE-6 reagent (Roche).
Rluc activities were monitored for the first 10 seconds after addition of the substrate benzyl-coelenterazine (5 μM, Nanolight).
Protein-fragment Complementation (PCA) cell-based assay. […] To further examine the efficacy of the PDE inhibitors described herein, a reporter enzyme was used—Renilla reniformis luciferase (Rluc), where the N- and C-terminal fragments of Rluc are fused to the catalytic subunits (Cat) and inhibiting regulatory subunits (Reg) of protein kinase A (PKA).

[22] = read-out: % Inhibition of the Enzyme Activity at 10 μM

## COc1ccc(OC)c(-c2nnc3n2N=C(c2ccc(OC)c(O[C@@H]4CCOC4)c2)CS3)c1 [Compound 10, (R)-3-(2,5-dimethoxyphenyl)-6-(4-methoxy-3-(tetrahydrofuran-3-yloxy)phenyl)-7H-[1,2,4]-triazolo[3,4-b][1,3,4]thiadiazine]
[1]
  IC50: 1.9 nM
[2]
  % Inhibition of the Enzyme Activity at 10 μM: 43%
[3]
  % Inhibition of the Enzyme Activity at 10 μM: 49%
[4]
  IC50: 4600 nM
[5]
  IC50: 3 nM
[6]
  % Inhibition of the Enzyme Activity at 10 μM: inactive
[6]; [22]
  inhibition at 10 µM: < 26%
[7]
  % Inhibition of the Enzyme Activity at 10 μM: 58%
[8]
  inhibition at 10 µM: 56%
[9]
  % Inhibition of the Enzyme Activity at 10 μM: 68%
[10]
  % Inhibition of the Enzyme Activity at 10 μM: inactive
[10]; [22]
  inhibition at 10 µM: < 26%
[11]
  inhibition at 10 µM: 52%
[12]
  % Inhibition of the Enzyme Activity at 10 μM: inactive
[13]
  IC50: Sub-nanomolar potencies
[14]
  % Inhibition of the Enzyme Activity at 10 μM: 48%
[15]
  IC50: 46 nM
[16]
  % Inhibition of the Enzyme Activity at 10 μM: 36%
[17]
  IC50: 632 nM
[18]
  IC50: 1.6 nM
[19]
  EC50: 2.3 nM
[20]
  IC50: 2.3 nM
[21]
  effect on luminescence signal (PKA activation): marked loss of luminescence; also recorded: dose-dependent inhibition

From patent US20110112079A1, “PHOSPHODIESTERASE INHIBITORS” (priority 2008, published 2011)
